# According to patent US20100292205A1, “Pyrimidone Compounds As GSK-3 Inhibitors” (PFIZER INC., priority 2006, published 2010):
# Target: T1, Recombinant human GSK3β (Homo sapiens, UniProt P49841)
# T1 construct: His-tag; made in house; host or cells: Sf9 insect cells / baculovirus
# Test: GSK-3β (Glycogen Synthase Kinase) cell free enzyme assay
# Type: biochemical
# Settings: 1 μM; Examples 157-199
# Method in brief: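 This cell-free kinase assay measured [33P] transfer from [33P]ATP gamma phosphate into the biotinylated peptide bio-LC-S-R-H-S-S-P-H-Q-pS-E-D-E-E-E-OH. After 60 min at RT, reactions were stopped with 0.66 volume of PBS lacking Ca or Mg containing 12.5 mM EDTA, 0.25% Triton-X 100, 125 uM ATP and 6.2 mg/ml streptavidin SPA beads. Bead-bound radioactivity was counted as CPM on a Trilux scintillation counter.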
# T1 sequence (P49841 whole entry): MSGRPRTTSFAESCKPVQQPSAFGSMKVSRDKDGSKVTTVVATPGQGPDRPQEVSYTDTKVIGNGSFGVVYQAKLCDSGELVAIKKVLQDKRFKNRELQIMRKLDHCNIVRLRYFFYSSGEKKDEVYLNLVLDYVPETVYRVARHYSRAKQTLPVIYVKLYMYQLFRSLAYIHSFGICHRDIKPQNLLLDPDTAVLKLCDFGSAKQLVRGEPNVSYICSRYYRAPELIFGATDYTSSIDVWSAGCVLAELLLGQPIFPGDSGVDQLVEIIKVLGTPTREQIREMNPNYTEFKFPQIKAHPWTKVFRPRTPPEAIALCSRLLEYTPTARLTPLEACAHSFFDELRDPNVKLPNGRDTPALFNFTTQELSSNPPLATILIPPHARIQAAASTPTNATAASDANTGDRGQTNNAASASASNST
row,Compound,Percent inhibition at 1 μM
1,"Cn1c(N2[C@@H]3CC[C@H]2CN(S(=O)(=O)c2ccccc2)C3)nc(-c2ccncc2)cc1=O [Example 169, 3-Methyl-2-[(1R,5S)-3-(phenylsulfonyl)-38-diazabicyclo[3.2.1]oct-8-yl]-6-pyridin-4-ylpyrimidin-4(3H)-one]",92%
2,"CN(c1nc(-c2ccncc2)cc(=O)n1C)C1CCCN(S(=O)(=O)c2ccccc2)CC1 (stereo not drawn) [Example 182, 3-Methyl-2-{methyl[1-(phenylsulfonyl)azepan-4-yl]amino}-6-pyridin-4-ylpyrimidin-4(3H)-one]",96%

# Same assay, conditions: 1 μM; Examples 157-199; read-out: Percent inhibition at 1 μM
row,inhibition at 1 µM,Compound
1,61%,"Cn1c(N[C@H]2[C@@H]3CN(S(C)(=O)=O)C[C@@H]32)nc(-c2ccncc2)cc1=O [Example 157, 3-Methyl-2-{[(1R,5S,6s)-3-(methylsulfonyl)-3-azabicyclo[3.1.0]hex-6-yl]amino}-6-pyridin-4-ylpyrimidin-4(3H)-one]"
2,74%,"Cn1c(N[C@H]2CN(S(C)(=O)=O)C[C@@H]2F)nc(-c2ccncc2)cc1=O [Example 158, 2-{[(3S,4S)-4-Fluoro-1-(methylsulfonyl)pyrrolidin-3-yl]amino}-3-methyl-6-pyridin-4-ylpyrimidin-4(3H)-one]"
3,100%,"CN(c1nc(-c2ccncc2)cc(=O)n1C)C1CCCN(S(C)(=O)=O)CC1 (stereo not drawn) [Example 159, 3-Methyl-2-{methyl[1-(methylsulfonyl)azepan-4-yl]amino}-6-pyridin-4-ylpyrimidin-4(3H)-one]"
4,79%,"CN(c1nc(-c2ccncc2)cc(=O)n1C)C1CCN(S(C)(=O)=O)C1 (stereo not drawn) [Example 160, 3-Methyl-2-(methyl[1-(methylsulfonyl)pyrrolidin-3-yl]amino}-6-pyridin-4-ylpyrimidin-4(3H)-one]"
5,93%,"Cn1c(N[C@@H]2CN(S(C)(=O)=O)C[C@@H]2F)nc(-c2ccncc2)cc1=O [Example 161, 2-{[(3R,4S)-4-Fluoro-1-(methylsulfonyl)pyrrolidin-3-yl]amino}-3-methyl-6-pyridin-4-ylpyrimidin-4(3H)-one]"
6,84%,"CN(c1nc(-c2ccncc2)cc(=O)n1C)[C@@H]1CC[C@H]2N(S(C)(=O)=O)CC[C@@]2(C)C1 [Example 162, 3-Methyl-2-{methyl[(3a,S5,R7,aR)-3a-methyl-1-(methylsulfonyl)octahydro-1H-indo-5-yl]amino}-6-pyridin-4-ylpyrimidin-4(3H)-one]"
7,100%,"CCN(c1nc(-c2ccncc2)cc(=O)n1C)C1CCCN(S(C)(=O)=O)CC1 (stereo not drawn) [Example 163, 2-{Ethyl[1-(methylsulfonyl)azepan-4-yl]amino}-3-methyl-6-pyridin-4-ylpyrimidin-4(3H)-one]"
8,82%,"CCN(c1nc(-c2ccncc2)cc(=O)n1C)C1CCCN(S(C)(=O)=O)C1 (stereo not drawn) [Example 164, 2-{Ethyl[1-(methylsulfonyl)piperidin-3-yl]amino)-3-methyl-6-pyridin-4-ylpyrimidin-4(3H)-one]"
9,80%,"CCN(c1nc(-c2ccncc2)cc(=O)n1C)C1CCN(S(C)(=O)=O)CC1 [Example 165, 2-{Ethyl[1-(methylsulfonyl)piperidin-4-yl]amino}-3-methyl-6-pyridin-4-ylpyrimidin-4(3H)-one]"
10,74%,"CCN(C[C@H]1CCCN1S(C)(=O)=O)c1nc(-c2ccncc2)cc(=O)n1C [Example 166, 2-(Ethyl{[(2R)-1-(methylsulfonyl)pyrrolidin-2-yl]methyl}amino)-3-methyl-6-pyridin-4-ylpyrimidin-4(3H)-one]"
11,78%,"Cn1c(NC[C@H]2CCCN2S(C)(=O)=O)nc(-c2ccncc2)cc1=O [Example 168, 3-Methyl-2-({[(2R)-1-(methylsulfonyl)pyrrolidin-2-yl]methyl}amino)-6-pyridin-4-ylpyrimidin-4(3H)-one]"
12,99%,"Cn1c(NC2CCCN(S(=O)(=O)c3ccccc3)CC2)nc(-c2ccncc2)cc1=O (stereo not drawn) [Example 170, 3-Methyl-2-{[1-(phenylsulfonyl)azepan-4-yl]amino}-6-pyridin-4-ylpyrimidin-4(3H)-one]"
13,61%,"Cn1c(NC2CN(S(=O)(=O)c3ccccc3)C2)nc(-c2ccncc2)cc1=O [Example 171, 3-Methyl-2-{[1-(phenylsulfonyl)azetidin-3-yl]amino}-6-pyridin-4-ylpyrimidin-4(3H)-one]"
14,81%,"Cn1c(N2CC[C@@H]3CN(S(=O)(=O)c4ccccc4)C[C@@H]32)nc(-c2ccncc2)cc1=O [Example 172, 3-Methyl-2-[(3a,R6,aR)-5-(phenylsulfonyl)hexahydro-pyrrolo[34-b]pyrrol-1(2H)-yl]-6-pyridin-4-ylpyrimidin-4(3H)-one]"
15,51%,"Cn1c(NC2CCCCN(S(=O)(=O)c3ccccc3)C2)nc(-c2ccncc2)cc1=O (stereo not drawn) [Example 173, 3-Methyl-2-{[1-(phenylsulfonyl)azepan-3-yl]amino}-6-pyridin-4-ylpyrimidin-4(3H)-one]"
16,95%,"Cn1c(NC2CCN(S(=O)(=O)c3ccccc3)C2)nc(-c2ccncc2)cc1=O (stereo not drawn) [Example 174, 3-Methyl-2-{[1-(phenylsulfonyl)pyrrolidin-3-yl]amino}-6-pyridin-4-ylpyrimidin-4(3H)-one]"
17,49%,"Cn1c(NC2CCN(S(=O)(=O)c3ccccc3)CC2)nc(-c2ccncc2)cc1=O [Example 175, 3-Methyl-2-{[1-(phenylsulfonyl)piperidin-4-yl]amino}-6-pyridin-4-ylpyrimidin-4(3H)-one]"
18,96%,"Cn1c(N[C@H]2CN(S(=O)(=O)c3ccccc3)C[C@@H]2F)nc(-c2ccncc2)cc1=O [Example 176, 2-{[(3S,4S)-4-Fluoro-1-(phenylsulfonyl)pyrrolidin-3-yl]amino}-3-methy!-6-pyridin-4-ylpyrimidin-4(3H)-one]"
19,97%,"Cn1c(N[C@H]2[C@@H]3CN(S(=O)(=O)c4ccccc4)C[C@@H]32)nc(-c2ccncc2)cc1=O [Example 177, 3-Methyl-2-{[(1R,5S,6s)-3-(phenylsulfonyl)-3-azabicyclo[3.1.0]hex-6-yl]amino}-6-pyridin-4-ylpyrimidin-4(3H)-one]"
20,100%,"CN(c1nc(-c2ccncc2)cc(=O)n1C)[C@H]1CC[C@H]2N(S(=O)(=O)c3ccccc3)CC[C@@]2(C)C1 [Example 178, 3-Methyl-2-{methyl[(3a,S5,S7,aR)-3a-methyl-1-(phenylsulfonyl)octahydro-1H-indol-5-yl]amino}-6-pyridin-4-ylpyrimidin-4(3H)-one]"
21,93%,"Cn1c(NC2CCCN(S(=O)(=O)c3ccccc3)C2)nc(-c2ccncc2)cc1=O (stereo not drawn) [Example 179, 3-Methy-2-{[1-(phenylsulfonyl)piperidin-3-yl]amino}-6-pyridin-4-ylpyrimidin-4(3H)-one]"
22,93%,"CN(c1nc(-c2ccncc2)cc(=O)n1C)C1CCN(S(=O)(=O)c2ccccc2)C1 (stereo not drawn) [Example 180, 3-Methyl-2-{methyl[1-(phenylsulfonyl)pyrrolidin-3-yl]amino}-6-pyridin-4-ylpyrimidin-4(3H)-one]"
23,96%,"CN(c1nc(-c2ccncc2)cc(=O)n1C)C1CCCN(S(=O)(=O)c2ccccc2)CC1 (stereo not drawn) [Example 181, 3-Methyl-2-{methyl[1-(phenylsulfonyl)azepan-4-yl]amino}-6-pyridin-4-ylpyrimidin-4(3H)-one]"
24,100%,"CN(c1nc(-c2ccncc2)cc(=O)n1C)[C@@H]1CC[C@H]2N(S(=O)(=O)c3ccccc3)CC[C@@]2(C)C1 [Example 183, 3-Methyl-2-{methyl[(3,aS5,R7,aR)-3a-methyl-1-(phenylsulfonyl)octahydro-1H-indol-5-yl]amino}-6-pyridin-4-ylpyrimidin-4(3H)-one]"
25,100%,"Cn1c(N[C@@H]2CN(S(=O)(=O)c3ccccc3)C[C@@H]2F)nc(-c2ccncc2)cc1=O [Example 184, 2-{[(3R,4S)-4-Fluoro-1-(phenylsulfonyl)pyrrolidin-3-yl]amino}-3-methyl-6-pyridin-4-ylpyrimidin-4(3H)-one]"
26,101%,"CCN(c1nc(-c2ccncc2)cc(=O)n1C)C1CCCN(S(=O)(=O)c2ccccc2)C1 (stereo not drawn) [Example 185, 2-{Ethyl[1-(phenylsulfonyl)piperidin-3-yl]amino}-3-methyl-6-pyridin-4-ylpyrimidin-4(3H)-one]"
27,101%,"CCN(c1nc(-c2ccncc2)cc(=O)n1C)C1CCCN(S(=O)(=O)c2ccccc2)CC1 (stereo not drawn) [Example 186, 2-{Ethyl[1-(phenylsulfonyl)azepan-4-yl]amino}-3-methyl-6-pyridin-4-ylpyrimidin-4(3H)-one]"
28,102%,"CCN(c1nc(-c2ccncc2)cc(=O)n1C)C1CCN(S(=O)(=O)c2ccccc2)CC1 [Example 187, 2-{Ethyl[1-(phenylsulfonyl)piperidin-4-yl]amino}-3-methyl-6-pyridin-4-ylpyrimidin-4(3H)-one]"
29,94%,"Cn1c(NC[C@H]2CCCN2S(=O)(=O)c2ccccc2)nc(-c2ccncc2)cc1=O [Example 188, 3-Methyl-2-({[(2R)-1-(phenylsulfonyl)pyrrolidin-2-yl]methyl}amino)-6-pyridin-4-ylpyrimidin-4(3H)-one]"
30,95%,"CCN(C[C@H]1CCCN1S(=O)(=O)c1ccccc1)c1nc(-c2ccncc2)cc(=O)n1C [Example 189, 2-(Ethyl{[(2R)-1-(phenylsulfonyl)pyrrolidin-2-yl]methyl}amino)-3-methyl-6-pyridin-4-ylpyrimidin-4(3H)-one]"

# Same assay, conditions: cell free enzyme assay; Examples 62-155
row,IC50,Compound
1,102 nM,"Cc1c(C(=O)N2C[C@@H]3[C@H](C2)[C@H]3N(C)c2nc(-c3ccncc3F)cc(=O)n2C)cnn1-c1ccccc1 [Example 155, 6-(3-Fluoropyridin-4-yl)-3-methyl-2-(methyl{(1R,5S,6s)-3-[(5-methyl-1-phenyl-1H-pyrazol-4-yl)carbonyl]-3-azabicyclo[3.1.0]hex-6-yl}amino)pyrimidin-4(3H)-one]"
